According to US10731221B2, “Diagnosing IDH1 related subgroups and treatment of cancer” (Dignity Health, priority 2009, dated 2020):

Experiments:
[1] = tested on: GBM, AKT SL (secondary-like) subtype; assay: Kaplan Meier survival of TCGA GBM patients receiving or not receiving BCNU and/or CCNU, by AKT subgroup; assay type: in vivo, human; settings: for survival advantage: Secondary-Like patients, CCNU/BCNU; for median survival: TCGA SL patients treated with BCNU or CCNU (vs. other treatments), p=0.03 after correcting for age, log rank; for sensitivity of patients in the SL subgroup: TCGA SL subgroup
From the text: FIG. 5 depicts, in accordance with various embodiments of the invention, evidence that SL subtype (AKT subgroup 5) patients are sensitive to alkylating agents BCNU and CCNU. Kaplan Meier survival curves for TCGA patients receiving (solid line) or not receiving (dashed line) alkylating agent (BCNU and/or CCNU) by subgroup. p=0.03 after correcting for age (SL subtype; log rank). n=6 and 16 for SL patients receiving or not receiving BCNU/CCNU, respectively.
The discovery dataset (GBM195) consisted of 181 GBM (WHO grade IV astrocytoma; (159 primary and 22 recurrent) from 3 datasets, [4], [21] and 14 non-neoplastic samples from 2 sources: (1) six samples from patients undergoing temporal lobe epilepsy surgery and (2) eight samples from autopsy specimens of cerebral cortex from donors with no history of neurological disorders obtained from the National Neurological Research Brain Bank (Los Angeles, Calif.). Two datasets are in GEO (GSE4271, GSE4412) and the third has been submitted. Table 1 lists GEO ID's and clinical information for GBM195 tumors. Tissue collection and processing, pathological review, and microarray analysis for the discovery dataset (GBM195) has been described elsewhere ([3] Nigro et al. 2005, [4] Phillips et a. 2006, and [21] Freije et al. 2004, which are incorporated herein by reference in their entirety as though fully set forth.) The validation dataset consisted of 583 samples; 573 GBM (16 recurrent and 3 secondary) and 10 non-neoplastic samples from The Cancer Genome Atlas (TCGA). Samples were collected and processed as described ([5] Atlas TCG 2008, which is incorporated herein by reference in its entirety as though fully set forth.). IRB or Committee on Human Research approval was obtained for samples used in the discovery and validation datasets as described, [4], [10], [21].
Differences between one subgroup and the rest were assessed using the F test for […] and the likelihood ratio test for categorical variables. The Bonferroni method was applied to correct for multiple hypotheses. The inventors applied the Tukey HSD test to find pairwise differences between groups and correct for multiple comparisons. Survival differences between subgroups were assessed using the Chi-squared test. Age was added to build a multivariate Cox model. For survival comparisons of BCNU/CCNU treatment between subgroups there were not enough observations to correct for age. After deleting all observations younger than 45, survival was no longer related to age. Significance was then determined using log rank. The Pearson goodness-of-fit test was used to assess the null hypothesis that proportions of G-CIMP tumors by subgroup and recurrent tumors by subgroup are equal to the proportions for all tumors by subgroup. P-values for these tests were calculated by Monte Carlo simulation since the counts of tumors by subgroup were too small to apply the large sample chi-square approximation.
Since AKT influences response to chemotherapy, while not wishing to be bound by any theory, the inventors believe AKT subgroups are predictive markers. Indeed, TCGA SL patients treated with BCNU or CCNU had longer median survival than those receiving other treatments (FIG. 5; median survival=5.8 vs. 1.05 years; p=0.03 after correcting for age; log rank). […] This finding indicates patients in the SL subgroup are sensitive to BCNU and CCNU.

[2] = tested on: Glioblastoma AKT subgroups (Mesenchymal, Secondary-Like); assay: Kaplan Meier survival of TCGA patients receiving more vs. less temozolomide, by AKT subgroup; assay type: in vivo, human
From the text: FIG. 17 depicts, in accordance with various embodiments of the invention, evidence that Mesenchymal patients benefit from temozolomide. Kaplan Meier survival curves were plotted within each subgroup for TCGA patients receiving more (≥3 cycles; red) vs. less (<3 cycles; black) temozolomide. […] Median survival was 0.6 years greater for Mesenchymal patients treated with more temozolomide (1.8 years) vs. less temozolomide (1.2 years); p=0.01 log rank; not age adjusted.
We plotted Kaplan Meier survival curves for patients treated with more vs. less TMZ in each AKT subgroup (FIG. 17). Since most TCGA patients received some TMZ, it was not possible to plot survival curves for patients treated with and without the drug. Instead, we compared survival in 2 treatment arms, those receiving more (≥3) vs. less (<3) cycles.
There was a tendency for patients who received more TMZ to not have received a nitrosourea. […] Without wishing to be bound by any particular theory, this may underlie the worse survival of patients receiving more TMZ in the Secondary-Like subgroup.

For O=NN(CCCl)C(=O)NCCCl [BCNU, carmustine], the survival advantage [1] was 4.5 year, the median survival [1] was 5.8 years and the “sensitivity of patients in the SL subgroup” value [1] was “sensitive”.

For O=NN(CCCl)C(=O)NC1CCCCC1 [CCNU, lomustine], the survival advantage [1] was 4.5 year, the median survival [1] was 5.8 years and the “sensitivity of patients in the SL subgroup” value [1] was “sensitive”.

In the case of Cn1nnc2c(C(N)=O)ncn2c1=O [temozolomide], the median survival ([2]; less temozolomide (<3 cycles)) is reported as 1.2 years, the median survival ([2]; more temozolomide (≥3 cycles), p=0.01 log rank, not age adjusted) is reported as 1.8 years and the “Median survival difference, more vs. less temozolomide” value ([2]; ≥3 vs. <3 cycles) is reported as 0.6 years.
